From US20260240976A1, “T[…] VACCINES BASED ON VALIDATED TARGET EPITOPES” (Deutsches Krebsforschungszentrum Stiftung des öffentlichen …, priority 2023, published 2026) come the findings set out here.

For experiment [1], the system named is peptide-specific T cell cultures. Kind of experiment: T cell phenotyping and intracellular cytokine staining (IFN-gamma, TNF-alpha). In kind it is cell-based, human. Set-up: key: +: cytokine: Immunogenicity of the peptide shown by intracellular cytokine staining (IFN-gamma, TNF-alpha); +*: *highlights data from published resources.; *highlights data from published resources. Here is the method: To characterize and quantify the responsive cells upon peptide stimulation, the peptide-specific T cell cultures with positive ELISpot results were further analyzed with T cell phenotyping and intracellular cytokine staining (ICS) assessed by flow cytometry.
The cells of the respective continued short-term T cell culture as well as the DMSO-stimulated and an unresponsive T cell line were harvested into 2 mL reaction tubes and centrifuged at 400×g for 10 min. The supernatant was discarded and the pellet of the unresponsive T cell line was resuspended in 100 μL ELISpot medium and used as unstimulated and unstained control. The pellets of the responsive and the DMSO-stimulated T cell lines were resuspended in 200 μL ELISpot medium and split equally into two wells of a V-bottom 96-well plate. One well of the responsive T cell lines was re-stimulated with 10 μg/mL of its specific peptide while the other well was mock stimulated with 0.1% (v/v) DMSO. As positive control, one well of the DMSO-stimulated T cell line was activated by treatment with 20 ng/ml Phorbol 12-myristate 13-acetate and 1 μM lonomycin. Then, 1:10 diluted GolgiStop (containing monensin) and 1:15 diluted GolgiPlug (containing brefeldin A) were added to all wells to inhibit intracellular transport processes. Monensin inhibits the trans-Golgi transport, while brefeldin A inhibits transport between the ER and the Golgi (Chardin and McCormick, 1999; Mollenhauer et al., 1990). The stimulated cells were incubated for 5 h at standard culture conditions.
After incubation, the cells were resuspended, centrifuged at 400×g for 5 min and the supernatant was discarded. Then, the cells were resuspended in 50 μL cold staining buffer (unstained) or 50 μL cold staining buffer containing the phenotyping antibodies against CD3, CD4, CD8 and the LIVE/DEAD™ Fixable Near-IR Dead Cell Stain (unstimulated and stimulated) and incubated at 4° C. for 30 min. After the surface staining, the cells were washed twice with 200 μL staining buffer and centrifugation at 1400 rpm, followed by fixation with 1% paraformaldehyde (PFA) solution for 15 min at 4° C. All following centrifugation steps were carried out at 1400 rpm for 5 min. After fixation, the cells were again washed twice with 200 μL cold staining buffer and were then resuspended in 100 μL 1× perm/wash buffer diluted in PBS (provided is 10×) for 15 min at 4° C. for cell membrane permeabilization. Subsequently, the plate was centrifuged and the supernatant was discarded. The cells were resuspended in 50 μL perm/wash buffer diluted in PBS (unstained) or 50 μL perm/wash buffer containing the intracellular cytokine antibodies against IFNγ, TNFα and granzyme B (unstimulated and stimulated) for 30 min at 4° C. After intracellular cytokine staining, the cells were washed twice with 200 μL 1× perm/wash buffer. Then 100 μL fix/perm solution (provided in the BD Cytofix/Cytoperm kit) were added per well. After 20 min of incubation at 4° C., the cells of each well were washed twice with 200 μL 1× perm/wash buffer before being resuspended in 100 μL staining buffer and stored at 4° C. overnight.
OneComp eBeads™ (eBeads) and ArC™ Amine Reactive Compensation beads (ArC beads) were stained as compensation controls. For each antibody, 50 μL of the eBeads suspension were stained with the same dilution as used for staining the cells. The ArC beads were stained with 1 μL LIVE/DEAD™ Fixable Near-IR Dead Cell Stain stock solution in 50 μL staining buffer. The beads were incubated at 4° C. for 30 min and were then washed two times with 1 mL staining buffer and centrifugation at 400×g. Finally, the stained beads were resuspended in 400 μL staining buffer, one drop of ArC™ negative beads was added to the labelled ArC beads, and all beads were stored at 4° C. overnight.
On the next day, the samples and the single stained compensation controls were acquired at a BD FACS Canto™ II analyzer using the BD FACS Diva Software Version 6. […]

Experiment [2] relates to short-term antigen-specific T cell lines generated from PBMCs. Kind of experiment: Interferon-γ ELISpot assay on short-term antigen-specific T cell lines. In kind it is cell-based, human. To be noted: for rates of immunoactivation in PBMC samples, CD8 T cell responses and/or numbers of HPV16 positive cell lines presenting the peptide as HLA-complexes: comparison among the peptides in Table 1.

For “115 (FAFRDLCIVY; Human papillomavirus 16) [compound 115]”, the “cytokine: Immunogenicity of the peptide shown by intracellular cytokine staining (IFN-gamma, TNF-alpha)” value (from here on “cytokine: Immunogenicity”) in experiment [1] (HLA restriction B15) is on record as “+”. For the same substance, the “ELISpot: Immungenicity of the peptide shown by IFN-gamma ELISPOT analysis” value (shortened to “ELISpot: Immungenicity”) in experiment [2] (HLA restriction B15) was “+”.

Take “60 (AFRDLCIVYR; Human papillomavirus 16) [compound 60]”: in experiment [1] (HLA restriction A11), the “cytokine: Immunogenicity” value is on record as “+”. For the same substance, the “ELISpot: Immungenicity” value in experiment [2] (HLA restriction A11) is on record as “+”.

For “65 (VCDKCLKFYSK; Human papillomavirus 16) [compound 65]”, the “cytokine: Immunogenicity” value in experiment [1] (HLA restriction A11) was “+”. Moreover, the “ELISpot: Immungenicity” value in experiment [2] (HLA restriction A11) was “+”.

As to “64 (AVCDKCLKFYS; Human papillomavirus 16) [compound 64]”, the “cytokine: Immunogenicity” value in experiment [1] (HLA restriction A11) is given as “+”. Further, the “ELISpot: Immungenicity” value in experiment [2] (HLA restriction A11) was “+”.

“92 (HYCYSLYGTTL; Human papillomavirus 16) [compound 92]”: the “cytokine: Immunogenicity” value in experiment [1] (HLA restriction A24) is recorded as “+”. Also, the “ELISpot: Immungenicity” value in experiment [2] (HLA restriction A24) is “+”.

For the substance “108 (AFRDLCIVY; Human papillomavirus 16) [compound 108]”, the “cytokine: Immunogenicity” value in experiment [1] (HLA restriction B15) is recorded as “+”. In experiment [2] (HLA restriction B15), the “ELISpot: Immungenicity” value is on record as “+”. Further, in experiment [2], the “rates of immunoactivation in PBMC samples, CD8 T cell responses and/or numbers of HPV16 positive cell lines presenting the peptide as HLA-complexes” value is “highest rates of immunoactivation in PBMC samples, to induce the strongest CD8 T cell responses, and/or shown to be presented as HLA-complexes by the highest numbers of HPV16 positive cell lines”.

Consider “88 (DRAHYNIVTF; Human papillomavirus 16) [compound 88]”, for which, in experiment [1] (HLA restriction A24), the “cytokine: Immunogenicity” value is “+”. Further, the “ELISpot: Immungenicity” value in experiment [2] (HLA restriction A24) is “+”.

With “89 (HYNIVTFCC; Human papillomavirus 16) [compound 89]”, in experiment [1] (HLA restriction A24), the “cytokine: Immunogenicity” value is “+”. Also, in experiment [2] (HLA restriction A24), the “ELISpot: Immungenicity” value is “+”.

Take “43 (LLMGTLGIVC; Human papillomavirus 16) [compound 43]”: the “cytokine: Immunogenicity” value in experiment [1] (HLA restriction A02) is “+”. In experiment [2] (HLA restriction A02), the “ELISpot: Immungenicity” value is “+”.

Consider “101 (NIRGRWTGRCM; Human papillomavirus 16) [compound 101]”, for which the “cytokine: Immunogenicity” value in experiment [1] (HLA restriction B07) and in experiment [1] (HLA restriction B15) was “+” throughout. Moreover, the “ELISpot: Immungenicity” value in experiment [2] (HLA restriction B07) and in experiment [2] (HLA restriction B15) was “+” in each case.

Turning to “66 (GIVCPICSQK; Human papillomavirus 16) [compound 66]”, the “cytokine: Immunogenicity” value in experiment [1] (HLA restriction A03) was “+”. Moreover, the “ELISpot: Immungenicity” value in experiment [2] (HLA restriction A03) was “+”.

Turning to “6 (DLQPETTDLY; Human papillomavirus 16) [compound 6]”, the “cytokine: Immunogenicity” value in experiment [1] (HLA restriction A01) is recorded as “+”. For the same substance, the “ELISpot: Immungenicity” value in experiment [2] (HLA restriction A01) is reported as “+”.

For the substance “102 (EPDRAHYNIV; Human papillomavirus 16) [compound 102]”, the “cytokine: Immunogenicity” value in experiment [1] (HLA restriction B07) is recorded as “+”. Further, the “ELISpot: Immungenicity” value in experiment [2] (HLA restriction B07) is reported as “+”.

“61 (IVYRDGNPY; Human papillomavirus 16) [compound 61]”: the “cytokine: Immunogenicity” value in experiment [1] (HLA restriction A03) and in experiment [1] (HLA restriction A11) was “+” in each case. For the same substance, the “ELISpot: Immungenicity” value in experiment [2] (HLA restriction A03) and in experiment [2] (HLA restriction A11) was “+” in each case.

Turning to “141 (RPRKLPDLCT; Human papillomavirus 16) [compound 141]”, the “cytokine: Immunogenicity” value in experiment [1] (HLA restriction B07) was “+”. In addition, the “ELISpot: Immungenicity” value in experiment [2] (HLA restriction B07) was “+”.

On to “59 (FAFRDLCIVYR; Human papillomavirus 16) [compound 59]”, for which the “cytokine: Immunogenicity” value in experiment [1] (HLA restriction A11) is listed as “+”. Besides, in experiment [2] (HLA restriction A11), the “ELISpot: Immungenicity” value is “+”.

For “7 (TTDLYCYEQ; Human papillomavirus 16) [compound 7]”, the “cytokine: Immunogenicity” value in experiment [1] (HLA restriction A01) was “+”. Also, the “ELISpot: Immungenicity” value in experiment [2] (HLA restriction A01) is “+”.

For “117 (YRHYCYSVY; Human papillomavirus 16) [compound 117]”, the “cytokine: Immunogenicity” value in experiment [1] (HLA restriction B15) is listed as “+”. Also, the “ELISpot: Immungenicity” value in experiment [2] (HLA restriction B15) was “+”.

With “4 (YGVCDKCLKFY; Human papillomavirus 16) [compound 4]”, in experiment [1] (HLA restriction A01), the “cytokine: Immunogenicity” value is “+”. In experiment [2] (HLA restriction A01), the “ELISpot: Immungenicity” value is “+”.

For “74 (DLLIRCINCQK; Human papillomavirus 16) [compound 74]”, the “cytokine: Immunogenicity” value in experiment [1] (HLA restriction A11) is given as “+”. Also, the “ELISpot: Immungenicity” value in experiment [2] (HLA restriction A11) was “+”.

For the substance “5 (EYRYYCYSLY; Human papillomavirus 16) [compound 5]”, the “cytokine: Immunogenicity” value in experiment [1] (HLA restriction A01) is “+”. In experiment [2] (HLA restriction A01), the “ELISpot: Immungenicity” value is on record as “+”.

Regarding “110 (GQAEPDRAHY; Human papillomavirus 16) [compound 110]”, in experiment [1] (HLA restriction B15), the “cytokine: Immunogenicity” value was “+”. Also, the “ELISpot: Immungenicity” value in experiment [2] (HLA restriction B15) is “+”.

Turning to “84 (PYAVCDKCLKF; Human papillomavirus 16) [compound 84]”, in experiment [1] (HLA restriction A24), the “cytokine: Immunogenicity” value is “+”. Moreover, in experiment [2] (HLA restriction A24), the “ELISpot: Immungenicity” value is given as “+”.

As to “87 (PDRAHYNIVTF; Human papillomavirus 16) [compound 87]”, the “cytokine: Immunogenicity” value in experiment [1] (HLA restriction A24) is “+”. The “ELISpot: Immungenicity” value in experiment [2] (HLA restriction A24) is given as “+”.

Turning to “62 (NPYAVCDKCLK; Human papillomavirus 16) [compound 62]”, in experiment [1] (HLA restriction A11), the “cytokine: Immunogenicity” value was “+”. In addition, the “ELISpot: Immungenicity” value in experiment [2] (HLA restriction A11) was “+”.

With “63 (AVCDKCLKFY; Human papillomavirus 16) [compound 63]”, the “cytokine: Immunogenicity” value in experiment [1] (HLA restriction A03), in experiment [1] (HLA restriction A11) and in experiment [1] (HLA restriction B15) was “+” each time. The “ELISpot: Immungenicity” value in experiment [2] (HLA restriction A03) and in experiment [2] (HLA restriction B15) was “+” in each case.

Consider “107 (KQQLLRREVY; Human papillomavirus 16) [compound 107]”, for which, in experiment [1] (HLA restriction B15), the “cytokine: Immunogenicity” value is “+”. The “ELISpot: Immungenicity” value in experiment [2] (HLA restriction B15) is reported as “+”. In addition, the “rates of immunoactivation in PBMC samples, CD8 T cell responses and/or numbers of HPV16 positive cell lines presenting the peptide as HLA-complexes” value in experiment [2] is listed as “highest rates of immunoactivation in PBMC samples, to induce the strongest CD8 T cell responses, and/or shown to be presented as HLA-complexes by the highest numbers of HPV16 positive cell lines”.
